Laboratory results from US8088761B2, “Enzyme inhibitors” (Cancer Research Technology Limited, priority 2005, dated 2012).
Where two headings read alike, the source gives them in different places.

Assays:
HCT116 cells = assay: Cell viability assay (MTT) in HCT116 cell line; format: cell-based; conditions: Homo sapiens, HCT-116, 72 hrs, IC50 range, read-out: HCT116 cell growth inhibition
Procedure: Cell Viability Assay: Determination of IC50 of Aurora Inhibitors in HCT116 Cell Line Using MTT Assay. The effects of compounds of the Examples on cellular proliferation were determined using the MTT assay according to manufacturer's instructions (Sigma). Briefly, the human colon tumour cells HCT116, were seeded in triplicate into 96-well plates at 2500 cells/well 24 hours before treatment with a range of concentrations of Aurora inhibitors (0-50 μM). After 72 hrs, 15 μl/well of 0.5% 3-(4,5-dimethylthiazol-2-yl)-2,5-diphenyltetrazolium bromide (MTT) was added to the cells for 4 hrs at 37° C., the dye-stained viable cells were extracted by adding 150 μl/well of dimethyl sulphoxide (DMSO). […] The IC50 was calculated using the Prism software.

Aurora-A = target: T1, Aurora-A (Homo sapiens, UniProt O14965); assay: Flashplate Aurora A enzyme inhibition assay; format: biochemical
T1 sequence (O14965 1-403): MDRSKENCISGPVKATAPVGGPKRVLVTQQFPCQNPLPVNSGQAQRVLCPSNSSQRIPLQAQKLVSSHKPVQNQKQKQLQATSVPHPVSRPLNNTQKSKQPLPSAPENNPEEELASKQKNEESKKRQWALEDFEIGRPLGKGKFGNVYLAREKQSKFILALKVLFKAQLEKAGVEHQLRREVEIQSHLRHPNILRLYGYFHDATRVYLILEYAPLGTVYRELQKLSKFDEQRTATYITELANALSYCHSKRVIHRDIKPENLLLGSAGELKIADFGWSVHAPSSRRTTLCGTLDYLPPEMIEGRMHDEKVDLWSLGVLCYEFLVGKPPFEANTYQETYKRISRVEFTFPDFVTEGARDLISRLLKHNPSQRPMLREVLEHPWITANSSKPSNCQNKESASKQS
Procedure: Flashplate® Assay for Identification and Evaluation of Aurora-A Inhibitors
On this assay 384-well Basic Flashplate® (SMP400E, PerkinElmer) as solid assay platform was used. The plates were coated overnight at 4° C. with […] at 100 μg/ml in PBS buffer and used after being washed twice with PBS. 5 μl of compound in 2% DMSO was added to each well followed by 15 μl master mix of kinase buffer (50 mM Tris pH 7.5, 10 mM NaCl, 2.5 mM MgCl2, 1 mM […], 20 μM ATP, and 0.025 μCi/μl ^33P-ATP). Finally, 250 ng per well of Aurora-A enzyme was added. The plate was shaken for approximately 2 min on a flat-bed plate shaker (Wellmix, Denley, UK) and incubated for 2 hours at room temperature. The reaction was stopped by washing the plate twice on a 16-pin wash (ELX50 BioTek Instruments Ltd., Northstar, Bedford, UK) with 10 mM sodium pyrophosphate. The plate was then read on a TopCount-NX™ (PerkinElmer Life Sciences UK Ltd., Hounslow, UK).

[1] = Flashplate assay, IC50 range, read-out: Aurora-A inhibition

Row | SMILES | IC50 (HCT116 cells) [nM] | IC50 (Aurora-A; [1]) [nM] | IC50 (Aurora-A) [nM]
1 | O=C(CN1CCN(c2c(Br)cnc3[nH]c(-c4ccccc4)nc23)CC1)Nc1nccs1 [Example 5, 2-[4-(6-Bromo-2-phenyl-3H-imidazo[4,5-b]pyridin-7-yl)-piperazin-1-yl]-N-thiazol-2-yl-acetamide] | 2000 to 50000 | < 500 | –
2 | NCc1ccc(-c2nc3c(N4CCN(CC(=O)Nc5nccs5)CC4)c(Br)cnc3[nH]2)cc1 [Example 7, 2-{4-[2-(4-Aminomethyl-phenyl)-6-bromo-3H-imidazo[4,5-b]pyridin-7-yl]-piperazin-1-yl}-N-thiazol-2-yl-acetamide] | 500 to 2000 | < 500 | –
3 | CN(C)Cc1ccc(-c2nc3c(N4CCN(CC(=O)Nc5nccs5)CC4)c(Br)cnc3[nH]2)cc1 [Example 8, 2-{4-[6-Bromo-2-(4-dimethylaminomethyl-phenyl)-3H-imidazo[4,5-b]pyridin-7-yl]-piperazin-1-yl}-N-thiazol-2-yl-acetamide] | 500 to 2000 | < 500 | –
4 | O=C(CN1CCN(c2c(Br)cnc3[nH]cnc23)CC1)Nc1nccs1 [Example 10, 2-[4-(6-Bromo-3H-imidazo[4,5-b]pyridin-7-yl)-piperazin-1-yl]-N-thiazol-2-yl-acetamide] | 2000 to 50000 | 500 to 2000 | –
5 | CC(C)(C)OC(=O)NCc1cccc(-c2nc3c(N4CCN(CC(=O)Nc5nccs5)CC4)c(Br)cnc3[nH]2)c1 [Example 11, (3-{6-Bromo-7-[4-(thiazol-2-ylcarbamoylmethyl)-piperazin-1-yl]-3H-imidazo[4,5-b]pyridin-2-yl}-benzyl)-carbamic acid tert-butyl ester] | 500 to 2000 | < 500 | –
6 | NCc1cccc(-c2nc3c(N4CCN(CC(=O)Nc5nccs5)CC4)c(Br)cnc3[nH]2)c1 [Example 12, 2-{4-[2-(3-Aminomethyl-phenyl)-6-bromo-3H-imidazo[4,5-b]pyridin-7-yl]-piperazin-1-yl}-N-thiazol-2-yl-acetamide] | 2000 to 50000 | < 500 | –
7 | CN(C)Cc1cccc(-c2nc3c(N4CCN(CC(=O)Nc5nccs5)CC4)c(Br)cnc3[nH]2)c1 [Example 13, 2-{4-[6-Bromo-2-(3-dimethylaminomethyl-phenyl)-3H-imidazo[4,5-b]pyridin-7-yl]-piperazin-1-yl}-N-thiazol-2-yl-acetamide] | 500 to 2000 | < 500 | –
8 | CC(c1ccccc1)N1CCN(c2c(Cl)cnc3[nH]c(-c4ccc(N(C)C)cc4)nc23)CC1 (stereo not shown) [Example 17, 4-(6-chloro-7-(4-(1-phenylethyl)piperazin-1-yl)-3H-imidazo[4,5-b]pyridin-2-yl)-N,N-dimethylaniline] | 500 to 2000 | < 500 | –
9 | COc1ccc(-c2nc3c(N4CCN(CC(=O)Nc5nccs5)CC4)c(Cl)cnc3[nH]2)cc1 [Example 19, 2-(4-(6-Chloro-2-(4-methoxyphenyl)-3H-imidazo[4,5-b]pyridin-7-yl)piperazin-1-yl)-N-(thiazol-2-yl)acetamide] | 500 to 2000 | < 500 | –
10 | CN(C)c1ccc(-c2nc3c(N4CCN(CC(=O)Nc5ccccc5)CC4)c(Br)cnc3[nH]2)cc1 [Example 20, 2-(4-(6-Bromo-2-(4-(dimethylamino)phenyl)-3H-imidazo[4,5-b]pyridin-7-yl)piperazin-1-yl)-N-phenylacetamide] | 500 to 2000 | < 500 | –
11 | CN(C)c1ccc(-c2nc3c(N4CCN(CC(=O)Nc5cccnc5)CC4)c(Br)cnc3[nH]2)cc1 [Example 21, 2-(4-(6-Bromo-2-(4-(dimethylamino)phenyl)-3H-imidazo[4,5-b]pyridin-7-yl)piperazin-1-yl)-N-(pyridin-3-yl)acetamide] | 500 to 2000 | < 500 | –
12 | CN(C)c1ccc(-c2nc3c(N4CCN(CC(=O)Nc5ccccc5)CC4)c(Cl)cnc3[nH]2)cc1 [Example 22, 2-(4-(6-Chloro-2-(4-(dimethylamino)phenyl)-3H-imidazo[4,5-b]pyridin-7-yl)piperazin-1-yl)-N-phenylacetamide] | 2000 to 50000 | < 500 | –
13 | Cc1csc(NC(=O)CN2CCN(c3c(Cl)cnc4[nH]c(-c5ccc(N(C)C)cc5)nc34)CC2)n1 [Example 23, 2-(4-(6-Chloro-2-(4-(dimethylamino)phenyl)-3H-imidazo[4,5-b]pyridin-7-yl)piperazin-1-yl)-N-(4-methylthiazol-2-yl)acetamide] | 500 to 2000 | < 500 | –
14 | CN(C)c1ccc(-c2nc3c(N4CCN(CC(=O)Nc5cccc(Cl)c5)CC4)c(Cl)cnc3[nH]2)cc1 [Example 24, 2-(4-(6-Chloro-2-(4-(dimethylamino)phenyl)-3H-imidazo[4,5-b]pyridin-7-yl)piperazin-1-yl)-N-(3-chlorophenyl)acetamide] | 2000 to 50000 | < 500 | –
15 | CN(C)c1ccc(-c2nc3c(N4CCN(CC(=O)N5CCCC5)CC4)c(Br)cnc3[nH]2)cc1 [Example 25, 2-(4-(6-Bromo-2-(4-(dimethylamino)phenyl)-3H-imidazo[4,5-b]pyridin-7-yl)piperazin-1-yl)-1-(pyrrolidin-1-yl)ethanone] | 2000 to 50000 | < 500 | –
16 | CN(C)c1ccc(-c2nc3c(N4CCN(Cc5ccc(Cl)cc5)CC4)c(Br)cnc3[nH]2)cc1 [Example 26, 4-(6-Bromo-7-(4-(4-chlorobenzyl)piperazin-1-yl)-3H-imidazo[4,5-b]pyridin-2-yl)-N,N-dimethylaniline] | < 500 | < 500 | –
17 | CN(C)c1ccc(-c2nc3c(N4CCN(Cc5cccnc5)CC4)c(Br)cnc3[nH]2)cc1 [Example 27, 4-(6-Bromo-7-(4-(pyridin-3-ylmethyl)piperazin-1-yl)-3H-imidazo[4,5-b]pyridin-2-yl)-N,N-dimethylaniline] | 500 to 2000 | < 500 | –
18 | COc1ccc(-c2nc3c(N4CCN(Cc5cccnc5)CC4)c(Br)cnc3[nH]2)cc1 [Example 28, 6-Bromo-2-(4-methoxyphenyl)-7-(4-(pyridin-3-ylmethyl)piperazin-1-yl)-3H-imidazo[4,5-b]pyridine] | 500 to 2000 | < 500 | –
19 | COc1cccc(-c2nc3c(N4CCN(CC(=O)Nc5nccs5)CC4)c(Br)cnc3[nH]2)c1 [Example 29] | 500 to 2000 | < 500 | –
20 | CN(C)c1ccc(-c2nc3c(N4CCN(Cc5ccccn5)CC4)c(Br)cnc3[nH]2)cc1 [Example 30, 4-(6-Bromo-7-(4-(pyridin-2-ylmethyl)piperazin-1-yl)-3H-imidazo[4,5-b]pyridin-2-yl)-N,N-dimethylaniline] | 2000 to 50000 | < 500 | –
21 | CN(C)c1ccc(-c2nc3c(N4CCN(Cc5ccncc5)CC4)c(Br)cnc3[nH]2)cc1 [Example 31, 4-(6-Bromo-7-(4-(pyridin-4-ylmethyl)piperazin-1-yl)-3H-imidazo[4,5-b]pyridin-2-yl)-N,N-dimethylaniline] | 500 to 2000 | < 500 | –
22 | CC(C)CN1CCN(c2c(Br)cnc3[nH]c(-c4ccc(N(C)C)cc4)nc23)CC1 [Example 32, 4-(6-Bromo-7-(4-isobutylpiperazin-1-yl)-3H-imidazo[4,5-b]pyridin-2-yl)-N,N-dimethylaniline] | 500 to 2000 | – | < 500
23 | CN(C)c1ccc(-c2nc3c(N4CCCN(Cc5ccc(F)cc5)CC4)c(Br)cnc3[nH]2)cc1 [Example 34, 4-(6-Bromo-7-(4-(4-fluorobenzyl)-1,4-diazepan-1-yl)-3H-imidazo[4,5-b]pyridin-2-yl)-N,N-dimethylaniline] | 2000 to 50000 | < 500 | –
